# Results taken from patent US20220185822A1, “SELECTIVE LIGANDS OF HUMAN CONSTITUTIVE ANDROSTANE RECEPTOR” (USTAV ORGANICKE CHEMIE A BIOCHEMIE AV CR, V.V.I., priority 2019, published 2022).
# What was measured:
# PPARδ = target: T1, PPARδ (Homo sapiens, UniProt Q03181); experiment: Luciferase reporter assay with GAL4 construct with LBD, PPARδ; assay type: cell-based; details: 10 μM/L
# T1 construct: luciferase reporter assays with a GAL4 constructs with LBD of tested nuclear receptors; expressed in transfected cells
# in vivo = details: C57BL/6, mouse, 10 mg/kg
# [1] = tested on: Salmonella typhimurium strains TA 98, TA 100, TA 1535, TA 1537 and Escherichia coli WP2 uvrA strain; experiment: Bacterial Reverse Mutation Test (OECD 471)
# [2] = tested on: thyroid hormone receptors; experiment: Luciferase reporter assay with GAL4 construct with LBD, thyroid hormone receptors; assay type: cell-based, human; details: 10 μM/L
# T1 sequence (Q03181 211-439 limits assumed): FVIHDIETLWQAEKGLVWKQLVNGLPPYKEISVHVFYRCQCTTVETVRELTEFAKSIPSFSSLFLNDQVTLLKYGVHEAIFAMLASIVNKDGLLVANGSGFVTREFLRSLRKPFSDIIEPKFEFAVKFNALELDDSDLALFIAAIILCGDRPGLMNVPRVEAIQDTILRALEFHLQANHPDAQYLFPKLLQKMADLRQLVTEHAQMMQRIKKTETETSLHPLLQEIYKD
compound,measurement,setting,value
"NC(=O)c1cc(Cn2cc(-c3c(-c4ccc(Cl)cc4)nc4cc(F)ccn34)nn2)ccc1Cl [Example 93, 2-Chloro-5-((4-(2-(4-chlorophenyl)-7-fluoroimidazo[1,2-a]pyridin-3-yl)-1H-1,2,3-triazol-1-yl)methyl)benzamide]",activation of PPARδ,PPARδ,do not activate
same,half-life,in vivo; ip,3.62 h
same,half-life,in vivo; oral,2.83 h
same,mutagenicity in Bacterial Reverse Mutation Test,"[1]; all indicator strains, with and without metabolic activation",non-mutagenic
same,number of revertants compared to solvent controls (Rt/Rc),[1]; with or without S9 fraction,< 2
same,activation of thyroid hormone receptors,[2],do not activate
